Source: ChEMBL document CHEMBL1158302, “Makaluvic acids A and B: novel alkaloids from the marine sponge Zyzzya fuliginosus” (1996)
Values after ≈ are worked out from the molar mass of the structure shown. Active and inactive are the calls of the source. The rule behind the calls is not given here.

System: P388
Experiment: Cytotoxicity against mouse P388 cells
Assay type: functional
Conditions: for EC50: read-out: ED50 (the source's name)

SMILES | EC50 [µg/mL] | Activity
Cn1cc2c3c1C(=O)C(N/C=C/c1ccc(O)cc1)=CC3=NCC2 [MAKALUVAMINE E] | 0.6 (≈ 1.88 µM) | 
Cn1cc2c3c1C(=O)C(NCCc1ccc(O)cc1)=CC3=NCC2 [MAKALUVAMINE K] | 0.7 (≈ 2.18 µM) | 
Cn1cc2c3c1C(=O)C(N)=CC3=NCC2 [MAKALUVAMINE A] | 0.4 (≈ 1.99 µM) | 
CN1CCc2c[nH]c(C(=O)O)c2C1=O |  | inactive
Cn1cnc2c1c(N)nc(=O)n2C |  | inactive
